Assays:
[1] = tested on: normal human bone marrow stromal cells (MSC); test: human bone marrow stromal cell (MSC) proliferation in response to PDGF BB and IL-1α; assay type: cell-based; settings: Table III, PDGF BB 50 ng/ml and IL-1α 10 ng/ml
Description: This example illustrates the effects of inventive compounds nos. 1114, 1413, 1560, 1565, 1594, 2518, 2548R, 2548S and 3503 as effective inhibitors of normal human bone marrow stromal cells (MSC) proliferation in response to Platelet Derived Growth Factor BB (PDGF B) and IL-1α (50 and 10 ng/ml, respectively).
MSC were obtained and malintained in exponential growth, released from a growth plate with trypsin and plated into 96 well tissue culture plates in the presence of Fibroblast Growth Factor (FGFβ) for 48 hours. Growth media were removed and the cells were washed once with serum free media. The cells were then incubated 20-24 hours in serum free media.
After incubation, inventive compounds were added to the cells at the appropriate concentration and then the cells again incubated for 1 hour. PDGF B and IL-1α were added to the cells along with 3H-thymidine and the cells again incubated for an additional 24 hours.
After 24 hours of incubation, the cells were then harvested to assess incorporation of ^3 H-thymidine into DNA (proliferation). From each harvested cell culture, an IC-50 for each inventive compound tested was determined. Therefore, a lower reported IC-50 value is indicatilve of greater activity of the invention compounds in inhibiting MSC proliferation. Table III illustrates IC-50 values (in μM) for invention compounds inhibiting MSC proliferation at very low concentrations of compound.

Balb/3T3 cells = test: PDGF-stimulated Balb/3T3 cell proliferation; assay type: cell-based; settings: FIGS. 8A (1409), 8B (1560); PDGF/BB
Description: Balb/3T3 cells respond vigorously to PDGF stimulation, and are useful in vitro models for further study of PDGF-induced proliferation. Disregulated PDGF-proliferative response has been linked to a variety of diseases, including, e.g., restenosis, atherosclerosis, fibrosis, and tumor cell angiogenesis.
Balb/3T3 cells were maintained in exponential growth. The cells were removed from a flask with EDTA and plated into 96 well plates at 3000 cells/well. After 48 hours, the media was removed, the cells washed once with PBS and serum free media and the cultures allowed to rest for a 24 hour period. Inventive compounds were added to the wells containing media and Balb/3T3 cells one hour prior to incubation with PDGF/BB, added at constant 10 μM concentrations along with 1 μ Ci 3-H-thymidine dye. Cells were subsequently incubated for 18-24 hours, harvested, and incorporated thymidine assessed on a Packard Topcount to determine degree of cell proliferation. Data obtained in this assay was used to determine experimental 50% inhibition concentrations for the inventive compounds tested.

With `Cn1cnc2c1c(=O)n(CCCCCCCC1CO1)c(=O)n2C` (centres unmarked) [Compound 1560, 1-(8,9-Oxidononyl)-3,7-dimethylxanthine] the IC50 [1] was 6.6 µM and the “inhibition of Balb/3T3 proliferation” value (Balb/3T3 cells) was “inhibit Balb/3T3 proliferation”.

From patent US5866576A, “Epoxide-containing compounds” (Cell Therapeutics, Inc., priority 1997, dated 1999)
